Experimental data from publication PMC10866072, “Design, synthesis, molecular modelling and biological evaluation of novel 6-amino-5-cyano-2-thiopyrimidine derivatives as potent anticancer agents against leukemia and apoptotic inducers” (Journal of Enzyme Inhibition and Medicinal Chemistry, 2024).

Columns and labels:
[1] = tested on: SW-620; format: cell-based; details: Homo sapiens, one dose 10^-5 M, 48 h
[2] = tested on: OVCAR-4; format: cell-based; details: Homo sapiens, one dose 10^-5 M, 48 h
[3] = tested on: SN12C; format: cell-based, human; details: Homo sapiens, one dose 10^-5 M, 48 h
[4] = tested on: MDA-MB-231/ATCC; format: cell-based; details: Homo sapiens, one dose 10^-5 M, 48 h
[5] = tested on: OVCAR-5; format: cell-based; details: Homo sapiens, one dose 10^-5 M, 48 h
[6] = tested on: UO-31; format: cell-based; details: Homo sapiens, UO-31, 48 h, one dose 10^-5 M, 48 h
[7] = tested on: MCF7; format: cell-based; details: Homo sapiens, one dose 10^-5 M, 48 h, read-out: % growth
[8] = tested on: TK-10; format: cell-based; details: Homo sapiens, one dose 10^-5 M, 48 h
[9] = tested on: 786-0; format: cell-based; details: Homo sapiens, one dose 10^-5 M, 48 h
[10] = tested on: full NCI 60 cell lines panel; details: for activity at 10 µM: Homo sapiens, 60 cell, read-out: Mean % growth; for activity on all 60 cancer cell lines tested (in words): one dose
[11] = tested on: MDA-MB-468; format: cell-based; details: Homo sapiens, one dose 10^-5 M, 48 h
[12] = tested on: OVCAR-8; format: cell-based; details: Homo sapiens, one dose 10^-5 M, 48 h
[13] = tested on: RXF 393; format: cell-based; details: Homo sapiens, RXF 393, 48 h, one dose 10^-5 M, 48 h, read-out: % growth
[14] = tested on: LOX IMVI; format: cell-based; details: Homo sapiens, one dose 10^-5 M, 48 h, read-out: % growth
[15] = tested on: COLO 205; format: cell-based; details: Homo sapiens, one dose 10^-5 M, 48 h
[16] = tested on: MDA-MB-435; format: cell-based; details: Homo sapiens, one dose 10^-5 M, 48 h, read-out: % growth
[17] = tested on: KM12; format: cell-based; details: Homo sapiens, one dose 10^-5 M, 48 h
[18] = tested on: MALME-3M; format: cell-based; details: Homo sapiens, one dose 10^-5 M, 48 h
[19] = tested on: A498; format: cell-based; details: Homo sapiens, one dose 10^-5 M, 48 h
[20] = tested on: SR; format: cell-based; details: Homo sapiens, one dose 10^-5 M, 48 h
[21] = tested on: HS 578T; format: cell-based; details: Homo sapiens; one dose 10^-5 M, 48 h; HS 578T; read-out: % growth
[22] = tested on: HCC-2998; format: cell-based; details: Homo sapiens, one dose 10^-5 M, 48 h
[23] = tested on: IGROV1; format: cell-based; details: Homo sapiens, IGROV-1, one dose 10^-5 M, 48 h, read-out: % growth
[24] = tested on: HCT-15; format: cell-based; details: Homo sapiens, one dose 10^-5 M, 48 h, read-out: % growth
[25] = tested on: T-47D; format: cell-based; details: Homo sapiens, T47D, one dose 10^-5 M, 48 h, read-out: % growth
[26] = tested on: PC-3; format: cell-based; details: Homo sapiens, one dose 10^-5 M, 48 h
[27] = tested on: UACC-257; format: cell-based; details: Homo sapiens, one dose 10^-5 M, 48 h
[28] = tested on: NCI-H522; format: cell-based; details: Homo sapiens, one dose 10^-5 M, 48 h
[29] = tested on: NCI/ADR-RES; format: cell-based; details: Homo sapiens, one dose 10^-5 M, 48 h
[30] = tested on: A549/ATCC; format: cell-based; details: Homo sapiens, one dose 10^-5 M, 48 h
[31] = tested on: CCRF-CEM; format: cell-based; details: Homo sapiens, one dose 10^-5 M, 48 h
[32] = tested on: SF-268; format: cell-based; details: Homo sapiens, one dose 10^-5 M, 48 h, read-out: % growth
[33] = tested on: NCI-H460; format: cell-based; details: Homo sapiens, one dose 10^-5 M, 48 h, read-out: % growth
[34] = tested on: NCI-H226; format: cell-based; details: Homo sapiens, one dose 10^-5 M, 48 h
[35] = tested on: HOP-92; format: cell-based; details: Homo sapiens, one dose 10^-5 M, 48 h
[36] = tested on: ACHN; format: cell-based; details: Homo sapiens, one dose 10^-5 M, 48 h
[37] = tested on: SK-MEL-28; format: cell-based; details: Homo sapiens, one dose 10^-5 M, 48 h
[38] = tested on: SF-295; format: cell-based; details: Homo sapiens, one dose 10^-5 M, 48 h
[39] = tested on: SK-MEL-5; format: cell-based; details: Homo sapiens, one dose 10^-5 M, 48 h, read-out: % growth
[40] = tested on: UACC-62; format: cell-based; details: Homo sapiens, one dose 10^-5 M, 48 h
[41] = tested on: HOP-62; format: cell-based; details: Homo sapiens, one dose 10^-5 M, 48 h
[42] = tested on: SF-539; format: cell-based; details: Homo sapiens, one dose 10^-5 M, 48 h
[43] = tested on: NCI-H23; format: cell-based; details: Homo sapiens, one dose 10^-5 M, 48 h, read-out: % growth
[44] = tested on: BT-549; format: cell-based; details: Homo sapiens, one dose 10^-5 M, 48 h
[45] = tested on: K-562; format: cell-based; details: Homo sapiens, K562, one dose 10^-5 M, 48 h
[46] = tested on: HL-60(TB); format: cell-based; details: Homo sapiens, one dose 10^-5 M, 48 h
[47] = tested on: HT29; format: cell-based; details: Homo sapiens, HT-29, one dose 10^-5 M, 48 h
[48] = tested on: CAKI-1; format: cell-based; details: Homo sapiens, CAKI-1, 48 h, one dose 10^-5 M, 48 h
[49] = tested on: EKVX; format: cell-based; details: Homo sapiens, one dose 10^-5 M, 48 h
[50] = tested on: SK-MEL-2; format: cell-based; details: Homo sapiens, one dose 10^-5 M, 48 h
[51] = tested on: SK-OV-3; format: cell-based; details: Homo sapiens, one dose 10^-5 M, 48 h
[52] = tested on: U251; format: cell-based; details: Homo sapiens, U-251, one dose 10^-5 M, 48 h
[53] = tested on: DU-145; format: cell-based; details: Homo sapiens, one dose 10^-5 M, 48 h
[54] = tested on: HCT-116; format: cell-based; details: Homo sapiens, one dose 10^-5 M, 48 h, read-out: % growth
[55] = tested on: OVCAR-3; format: cell-based; details: Homo sapiens, one dose 10^-5 M, 48 h
[56] = tested on: MOLT-4; format: cell-based; details: Homo sapiens, one dose 10^-5 M, 48 h, read-out: % growth
[57] = tested on: M14; format: cell-based; details: Homo sapiens, one dose 10^-5 M, 48 h
[58] = tested on: RPMI-8226; format: cell-based; details: Homo sapiens, one dose 10^-5 M, 48 h
[59] = tested on: SNB-19; format: cell-based; details: Homo sapiens, one dose 10^-5 M, 48 h, read-out: % growth

N=C(NN=Cc1ccc(Cl)cc1Cl)c1c(N)nc(S)nc1-c1ccc(Cl)cc1Cl [Compound 4r, 4-amino-6–(2,4-dichlorophenyl)-N'-[(2,4-dichlorophenyl)methylene]-2-mercapto pyrimidine-5-carboximidohydrazide]
% growth at 10 µM [1]: 105% | % growth at 10 µM [2]: 104% | % growth at 10 µM [3]: 102% | % growth at 10 µM [4]: 101% | percent cell growth at 10 µM [5]: 117% | % cell growth at 10 µM [6]: 92.5% | activity at 10 µM [7]: 98.9% | % cell growth at 10 µM [8]: 112% | % growth at 10 µM [9]: 87.5% | activity at 10 µM ([10]; 48 h): 104% | activity on all 60 cancer cell lines tested (in words) [10]: weak activity | Mean % growth ([10]; one dose 10^-5 M, 48 h, mean over all cell lines): 103.80% | percent cell growth at 10 µM [11]: 111% | % growth of cells at 10 µM [12]: 110% | activity at 10 µM [13]: 119% | activity at 10 µM [14]: 104% | % growth at 10 µM [15]: 113% | activity at 10 µM [16]: 113% | % growth at 10 µM [17]: 100% | % growth at 10 µM [18]: 86.5% | % growth at 10 µM [19]: 117% | percent cell growth at 10 µM [20]: 92.6% | activity at 10 µM [21]: 105% | % growth at 10 µM [22]: 100% | activity at 10 µM [23]: 102% | activity at 10 µM [24]: 113% | activity at 10 µM [25]: 103% | percent cell growth at 10 µM [26]: 98.1% | percent cell growth at 10 µM [27]: 106% | % growth at 10 µM [28]: 100% | cell growth percent at 10 µM [29]: 111% | % growth at 10 µM [30]: 102% | % cell growth at 10 µM [31]: 94.9% | activity at 10 µM [32]: 101% | activity at 10 µM [33]: 111% | % growth at 10 µM [34]: 106% | % growth at 10 µM [35]: 78% | % growth at 10 µM [36]: 107% | % cell growth at 10 µM [37]: 113% | % cell growth at 10 µM [38]: 98.5% | activity at 10 µM [39]: 107% | % growth at 10 µM [40]: 96.4% | % growth at 10 µM [41]: 102% | % growth at 10 µM [42]: 101% | activity at 10 µM [43]: 104% | % cell growth at 10 µM [44]: 91.6% | % growth at 10 µM [45]: 100% | % growth at 10 µM [46]: 102% | % growth at 10 µM [47]: 118% | % growth at 10 µM [48]: 109% | % cell growth at 10 µM [49]: 114% | % growth at 10 µM [50]: 111% | % growth at 10 µM [51]: 105% | % growth at 10 µM [52]: 105% | % growth at 10 µM [53]: 108% | activity at 10 µM [54]: 102% | % growth at 10 µM [55]: 108% | activity at 10 µM [56]: 100% | % growth at 10 µM [57]: 97.4% | % growth at 10 µM [58]: 106% | activity at 10 µM [59]: 94.6%

N=C(NN=Cc1ccc(Br)cc1)c1c(N)nc(S)nc1-c1ccc(Cl)cc1Cl [Compound 4q, 4-amino-N'-[(4-bromophenyl)methylene]-6–(2,4-dichlorophenyl)-2-mercapto pyrimidine-5-carboximidohydrazide]
% growth at 10 µM [1]: 108% | % growth at 10 µM [2]: 109% | % growth at 10 µM [3]: 103% | % growth at 10 µM [4]: 98.5% | percent cell growth at 10 µM [5]: 119% | % cell growth at 10 µM [6]: 94.2% | activity at 10 µM [7]: 90.9% | % cell growth at 10 µM [8]: 148% | % growth at 10 µM [9]: 93.8% | activity at 10 µM ([10]; 48 h): 104% | activity on all 60 cancer cell lines tested (in words) [10]: weak activity | percent cell growth at 10 µM [11]: 113% | % growth of cells at 10 µM [12]: 114% | activity at 10 µM [13]: 101% | activity at 10 µM [14]: 109% | % growth at 10 µM [15]: 114% | activity at 10 µM [16]: 104% | % growth at 10 µM [17]: 100% | % growth at 10 µM [18]: 91.2% | % growth at 10 µM [19]: 129% | percent cell growth at 10 µM [20]: 86.7% | activity at 10 µM [21]: 118% | % growth at 10 µM [22]: 114% | activity at 10 µM [23]: 105% | activity at 10 µM [24]: 108% | activity at 10 µM [25]: 110% | percent cell growth at 10 µM [26]: 102% | percent cell growth at 10 µM [27]: 102% | % growth at 10 µM [28]: 101% | cell growth percent at 10 µM [29]: 114% | % growth at 10 µM [30]: 98.8% | % cell growth at 10 µM [31]: 96.8% | activity at 10 µM [32]: 105% | activity at 10 µM [33]: 110% | % growth at 10 µM [34]: 107% | % growth at 10 µM [35]: 102% | % growth at 10 µM [36]: 108% | % cell growth at 10 µM [37]: 106% | % cell growth at 10 µM [38]: 96.6% | activity at 10 µM [39]: 104% | % growth at 10 µM [40]: 96.4% | % growth at 10 µM [41]: 101% | % growth at 10 µM [42]: 102% | activity at 10 µM [43]: 102% | % cell growth at 10 µM [44]: 97.7% | % growth at 10 µM [45]: 92.2% | % growth at 10 µM [46]: 96.5% | % growth at 10 µM [47]: 112% | % growth at 10 µM [48]: 86.9% | % cell growth at 10 µM [49]: 108% | % growth at 10 µM [50]: 109% | % growth at 10 µM [51]: 103% | % growth at 10 µM [52]: 107% | % growth at 10 µM [53]: 108% | activity at 10 µM [54]: 96.2% | % growth at 10 µM [55]: 104% | activity at 10 µM [56]: 91.4% | % growth at 10 µM [57]: 101% | % growth at 10 µM [58]: 98.8% | activity at 10 µM [59]: 99.2%
